# Data reported in article PMC4122355, “Inhibitor of the Tyrosine Phosphatase STEP Reverses Cognitive Deficits in a Mouse Model of Alzheimer's Disease” (PLoS Biology, 2014).
# Experiments:
# [1] = cited from earlier work
# [2] = Stability in imidazole buffer by 19F NMR; format: physicochemical; conditions: 1 h
# Method: The tube was allowed to incubate at ambient temperature with shaking for 1 h. The mixture was diluted with 150 µL of DMSO-d6 and transferred to an NMR tube containing a capillary of trifluoroacetic acid as an external standard (−76.55 ppm). The stability of the compound in the buffer was confirmed by observing no differences in the sensitive ^19F-NMR spectra (Figure S4). As a control for compound modification, the experiment was repeated with the addition of 1 mM GSH in the incubation buffer.
# mice = system: mice; parameters: method as in earlier work; conditions: cited from earlier work
# [3] = cited from earlier work; remark: listed apart in the source
# 3xTg-AD and WT mice = assay: Novel object recognition (NOR) task; format: in vivo, mouse; conditions: 10 mg/kg i.p.
# Method: Mice were first habituated to the task by allowing them to explore an empty white open field box (60 cm×60 cm) for 5 min. […] After the elapsed time, the mice completed the sample phase in which they were placed into the open field box with two identical objects located in the right and left corners. Mice were allowed to freely explore until they had accumulated a total of 30 s of object exploration (i.e., contact with the object with the nose and/or front paws), at which point the trial ended. The time spent with each object was recorded. Mice that were unable to complete the 30 s exploration within 20 min during the sample phase were excluded from the study (WT = 1 and AD = 3). Twenty-four hours later, mice completed the choice phase that was conducted in an identical manner to the sample phase except that one of the objects was substituted by a novel object and trial duration was set at 5 min. No drug treatments were given during the choice phase. Fifteen WT mice from the initial cohort were used to optimize the novel object conditions (to identify object pairings of inherent equal interest). Location of the novel object (left or right side) was counterbalanced to minimize possible bias. […] The DI was calculated for each subject by using the following formula: DI = (time spent exploring novel object – time spent exploring familiar object)/(total time spent exploring both objects). […]
# cortical cultures = assay: LDH release toxicity assay in cortical cultures; format: cell-based; conditions: up to 100 µM, up to 48 h, compared to positive controls
# Method: Bovine LDH was used as a LDH-positive control. The media was collected and analyzed for LDH. The assay quantitatively measures LDH, a stable cytosolic enzyme that is released upon cell lysis. Released LDH in culture supernatants is measured with a 30-min coupled enzymatic assay, which results in the conversion of a tetrazolium salt (INT) into a red formazan product. The amount of color formed is proportional to the number of lysed cells.
structure (smiles),measurement,setting,value
"Cl.Nc1cc(C(F)(F)F)cc2c1SSSSS2 [TC-2153, 8-(trifluoromethyl)-1,2,3,4,5-benzopentathiepin-6-amine hydrochloride]",LD50 (acute toxicity),[1],"> 1,000 mg/kg"
same,Stability with GSH (19F NMR),[2]; 1 mM GSH in pH 7.0 imidazole buffer,compound modification clearly observed
same,Stability in assay conditions (19F NMR),[2]; pH 7.0 imidazole buffer,stable and did not degenerate in the assay conditions
same,Behavioural effects taken as evidence of crossing the blood brain barrier,mice,anxiolytic and anticonvulsant effects
same,Solubility in aqueous solution,[3],reasonable solubility in aqueous solution
same,NOR memory in 12-mo-old AD mice,"3xTg-AD and WT mice; 12-mo-old 3xTg-AD mice, familiar versus novel p<0.05",significant improvement of memory
same,NOR cognitive function in 12-mo-old WT mice,"3xTg-AD and WT mice; WT mice, 12 mo cohort",did not affect cognitive function
same,LDH release (neuronal cell death),cortical cultures,no significant effect on LDH release
